# Laboratory results taken from patent US20110015080A1, “Solution-based methods for RNA expression profiling” (MASSACHUSETTS INSTITUTE OF TECHNOLOGY, priority 2005, published 2011).
# Test system: HL-60 cells
# Test: Bead-based miRNA expression profiling of HL-60 cells treated with all-trans retinoic acid
# Type: cell-based, human
# Conditions: 1 μM all-trans retinoic acid, 1, 3 and 5 days
# Method: Details of sample information are available in Table 9. Total RNAs were prepared from tissues or cell lines using TRIzol (INVITROGEN™, Carlsbad, Calif.), as described (Ramaswamy et al., 2001), and in compliance with IRB protocols. Leukemia bone marrow mononuclear cells were collected from patients treated at ST. JUDE […]′S […] HOSPITAL™ and at DANA-FARBER CANCER […]™ and their immunophenotype and genotype determined as previously described (Ferrando et al., 2002; Yeoh et al., 2002). Normal mouse lung and mouse lung cancer samples were collected from KRasLA1 mice, and genotyped as described (Johnson et al., 2001). Lungs from four- to five-month old mice were inflated with phosphate-buffered saline prior to removal. Individual lung tumors and normal lungs were dissected and immediately frozen on dry ice before RNA preparation. HL-60 cells were plated at 1.5×10^5 cell/ml and induced to differentiate by 1 μM all-trans retinoic acid (SIGMA™, St. Louis, Mo.; in ethanol). […]
# miRNA capture probes were 5′-amino-modified oligonucleotides with a 6-carbon linker (IDT). […] Median fluorescence intensity values were measured.
# Profiling data were first scaled according to the post-labeling-controls and then the pre-labeling-controls, in order to normalize readings from different probe/bead sets for the same sample, and to normalize for the labeling efficiency, as detailed in Materials and Methods of Example 3. […]
structure (smiles),measurement,setting,value
"CC1=C(/C=C/C(C)=C/C=C/C(C)=C/C(=O)O)C(C)(C)CCC1 [tretinoin, all-trans-retinoic acid]",miRNA expression in HL-60 cells,,induction of many miRNAs coincident with differentiation
same,miRNA expression in HL-60 cells,listed as ATRA,increased expression of many miRNAs
